The source of these data is ChEMBL document CHEMBL2074228, “Cloning and functional characterization of a potential-sensitive, polyspecific organic cation transporter (OCT3) most abundantly expressed in placenta” (J Biol Chem, 1998).

“And” between values parts separate entries of the source, which are not always exact repeats. Equal entries are not always repeated.

The target in data set [1] is T1, OCT3 (Solute carrier family 22 member 3) (Rattus norvegicus, UniProt O88446).
T1 sequence (O88446 whole entry): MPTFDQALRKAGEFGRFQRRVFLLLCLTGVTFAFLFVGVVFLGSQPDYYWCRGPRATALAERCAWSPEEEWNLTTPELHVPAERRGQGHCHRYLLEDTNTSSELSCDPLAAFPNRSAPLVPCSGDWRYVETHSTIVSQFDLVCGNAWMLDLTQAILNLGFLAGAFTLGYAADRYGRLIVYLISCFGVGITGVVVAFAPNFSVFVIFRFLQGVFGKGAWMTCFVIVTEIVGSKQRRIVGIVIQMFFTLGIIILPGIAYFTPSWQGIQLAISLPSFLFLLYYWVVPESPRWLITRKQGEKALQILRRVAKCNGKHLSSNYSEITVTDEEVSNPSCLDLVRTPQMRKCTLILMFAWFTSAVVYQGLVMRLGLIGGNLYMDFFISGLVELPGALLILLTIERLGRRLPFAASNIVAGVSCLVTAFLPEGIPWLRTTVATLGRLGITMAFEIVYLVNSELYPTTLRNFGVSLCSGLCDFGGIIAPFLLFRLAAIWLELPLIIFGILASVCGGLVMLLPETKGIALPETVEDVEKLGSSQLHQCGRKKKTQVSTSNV
As to the kind of experiment: TP_TRANSPORTER: inhibition of Guanidine uptake (Guanidine: 35 uM, NMN: 5000 uM) in OCT3-expressing HeLa cells. On the set-up: scale not given: the % may be the effect or the level left. It counts as functional, cell-based. Conditions: human, probe guanidine (35 uM), read-out: Activity.

Data set [2] deals with T1, OCT3 (Solute carrier family 22 member 3). Nature of the data set: TP_TRANSPORTER: inhibition of Guanidine uptake (Guanidine: 35 uM, MPP+: 5000 uM) in OCT3-expressing HeLa cells. It is filed as functional, cell-based. Set-up: scale not given: the % may be the effect or the level left. Conditions: human, probe guanidine (35 uM), read-out: Activity.
Data set [3] shares this target. As to the kind of experiment: TP_TRANSPORTER: inhibition of Guanidine uptake (Guanidine: 35 uM, Desipramine: 5000 uM) in OCT3-expressing HeLa cells. It counts as functional, cell-based. On the set-up: scale not given: the % may be the effect or the level left. Conditions: human, probe guanidine (35 uM), read-out: Activity.
Data set [4] concerns the target T2, Solute carrier family 22 member 3 (Rattus norvegicus, UniProt O88446).
T2 sequence (O88446 whole entry): T1 sequence (O88446 whole entry)
Nature of the data set: TP_TRANSPORTER: uptake in OCT3-expressing HeLa cells. It counts as functional, cell-based. Particulars: human.

Data set [5] has as its target T2, Solute carrier family 22 member 3. Nature of the data set: TP_TRANSPORTER: uptake in Xenopus laevis oocytes. It is filed as functional, cell-based. Conditions: oocyte.
Data set [6] addresses T1, OCT3 (Solute carrier family 22 member 3). Nature of the data set: TP_TRANSPORTER: inhibition of Guanidine uptake (Guanidine: 35 uM, Serotonin: 5000 uM) in OCT3-expressing HeLa cells. It is filed as functional, cell-based. On the set-up: scale not given: the % may be the effect or the level left. Particulars: human, probe guanidine (35 uM), read-out: Activity.
The target is the same in data set [7]. As to the kind of experiment: in vitro. Conditions: human, OCT3-expressing HeLa cells, probe guanidine (35 uM).
The target is the same in data set [8]. Nature of the data set: TP_TRANSPORTER: inhibition of Guanidine uptake (Guanidine: 35 uM, MPTP: 5000 uM) in OCT3-expressing HeLa cells. It is filed as functional, cell-based. Set-up: scale not given: the % may be the effect or the level left. Particulars: human, probe guanidine (35 uM), read-out: Activity.
The target is the same in data set [9]. As to the kind of experiment: TP_TRANSPORTER: inhibition of Guanidine uptake (Guanidine: 35 uM, TMA: 5000 uM) in OCT3-expressing HeLa cells. On the set-up: scale not given: the % may be the effect or the level left. It is filed as functional, cell-based. Conditions: human, probe guanidine (35 uM), read-out: Activity.
For data set [10] the target is unchanged. As to the kind of experiment: in vitro. Conditions: human, OCT3-expressing HeLa cells, probe guanidine (35 uM). The source holds these as a separate data set.
Substrate in data set [11]: CC[N+](CC)(CC)CC
Nature of the data set: cells, lysate or membranes named.

`CNC(=O)c1cccnc1` [NICOTINYL METHYLAMIDE]: the activity at 5000 µM in data set [1] worked out at 33%.

As to `C[n+]1ccc(-c2ccccc2)cc1`, the activity at 5000 µM in data set [2] turned out to be 22%.

Regarding `CNCCCN1c2ccccc2CCc2ccccc21` [DESIPRAMINE], the activity at 5000 µM in data set [3] is 1%.

Regarding `N=C(N)N` [GUANIDINE], the Activity entry in data set [4] and in data set [5] was “substrate [+]” in each case.

As for `NCCc1c[nH]c2ccc(O)cc12` [SEROTONIN], the activity at 5000 µM in [6] amounted to 30%.

In [7], `CN1CCC[C@H]1c1cccnc1` [NICOTINE] displayed an activity at 5000 µM of 52%.

Regarding `CN1CC=C(c2ccccc2)CC1`, in data set [8], the activity at 5000 µM worked out at 14%.

On to `C[N+](C)(C)C` [TETRAMETHYLAMMONIUM], for which the activity at 5000 µM in data set [9] stood at 59%.

Take `CC[N+](CC)(CC)CC` [TETRYLAMMONIUM]: the activity at 5000 µM in data set [10] was determined as 41%.

B1: Solute carrier family 22 member 3 (Rattus norvegicus) (protein)
chain: T1 sequence (O88446 whole entry)
For the molecule B1, the Km in data set [11] was 2.5 mM and 6.2 mM.

As a reminder, the Km is the concentration of substrate that gives half-maximal velocity.
